# Assay results as given in patent publication EP4818185A1, “CRYSTAL FORMS OF 20(S)-PROTOPANAXADIOL, PREPARATION METHOD THEREFOR AND USE THEREOF” (Shanghai Baocheng Tailai Technology Co., Ltd., priority 2023, dated 2025).
# Values joined by “and” are separate entries in the source; they are usually repeats but may differ in a detail not shown here. Equal entries are not always repeated.
# Tests used:
# [1] = Solid-state stability test (XRPD crystal form, HPLC purity); assay type: physicochemical; details: for crystal form transformation (XRPD): under three conditions: 80°C sealed 1 day, 25°C/60% RH and 40°C/75% RH open 1 month
# Protocol: An appropriate amount of each test sample was weighed, and subjected to stability tests under the following conditions: sealed storage at 80°C for 1 day, and open storage at 25°C/60% RH and 40°C/75% RH for 1 month, respectively. Solid samples separated under different conditions were subjected to XRPD to measure crystal form to evaluate physical stability, and HPLC to measure chemical purity to evaluate chemical stability. […]
# [2] = Repose angle test (funnel, cone); assay type: physicochemical; details: for Average repose angle (°): average of three parallel tests; for Repose angle (°): single tests No. 1-3, calculated from cone height and diameter
# Protocol: An appropriate amount of each test sample was taken. A funnel was fixed on an iron stand and positioned perpendicularly to the tabletop. The crystal form A and crystal form B samples were added into the funnel, respectively, allowing the sample to freely fall to form a cone. The height and diameter of the cone were measured to calculate the repose angle. Three parallel tests were performed. […]
# [3] = Hygroscopicity test (dynamic vapor sorption, DVS); assay type: physicochemical; details: for Hygroscopic weight gain at 25°C/80% RH (%): DVS; for hygroscopicity: class per Chinese Pharmacopoeia 2020 edition definition
# Protocol: The dynamic vapor sorption-desorption (DVS) curves of each sample were tested and plotted, respectively, and the experimental results are shown in table 5, wherein, the DVS profile of the crystal form A in Example 2 is shown in figure 7, the DVS profile of the crystal form B in Example 5 is shown in figure 8, and the DVS profile of the crude 20(S)-protopanaxadiol in Example 1 is shown in figure 9.
# Regarding the description of hygroscopicity characteristics and the definition of hygroscopic weight gain (Guidelines for Hygroscopicity Test of Drugs, Chinese Pharmacopoeia 2020 Edition): • Deliquescent: Absorbing sufficient moisture to form a liquid • Highly hygroscopic: Hygroscopic weight gain of not less than 15% • Hygroscopic: Hygroscopic weight gain of less than 15% but not less than 2% • Slightly hygroscopic: Hygroscopic weight gain of less than 2% but not less than 0.2% • Non-hygroscopic or almost non-hygroscopic: Hygroscopic weight gain of less than 0.2%.
# [4] = Bulk density and tap density test; assay type: physicochemical; details: for Average bulk density / Average tap density: average of three parallel tests; for Average tap density: tapped 200 times; for Bulk density: single tests No. 1-3, approx. 800 mg in 5 mL graduated cylinder; for Tap density: single tests No. 1-3, tapped 200 times
# Protocol: Approximately 800 mg of each test sample was taken, and added into a 5 mL graduated cylinder, respectively, and the volume at this point was recorded. The graduated cylinder was lightly tapped against the tabletop 200 times, and the volume at this point was recorded. Three parallel tests were performed.
# [5] = Mechanical stability test (grinding, tableting); assay type: physicochemical; details: for crystal form after grinding: manually ground in agate mortar for about 3 minutes; for crystal form after tableting / crystallinity degree after tableting: tableting under a pressure of 200 MPa
# Protocol: An appropriate amount of each test sample was taken, placed respectively in an agate mortar, and manually ground for about 3 minutes, then, the crystal form was measured.
# An appropriate amount of each test sample was taken, and added respectively into a tablet press. The crystal form was measured after tableting under a pressure of 200 MPa.
# [6] = Solubility test (suspension equilibrated at 37°C, content by HPLC); details: for Solubility, FaSSIF: FaSSIF (fasted state simulated intestinal fluid); for Solubility, FaSSIF / Solubility, SGF: 37°C; for Solubility, SGF: SGF (simulated gastric fluid); for 24-hour solubility relative to LOQ: purified water and pH 1 buffer medium
# [7] = Initial (baseline of stability test)
Structure (SMILES),Crystal form change ([1]; 25°C/60% RH/open/1 month),Purity (area%) ([1]; 25°C/60% RH/open/1 month),Crystal form change ([1]; 40°C/75% RH/open/1 month),Purity (area%) ([1]; 40°C/75% RH/open/1 month),Crystal form change ([1]; 80°C/sealed/1 day),Purity (area%) ([1]; 80°C/sealed/1 day),"Purity (area%) [1, 7]",crystal form transformation (XRPD) [1],Average repose angle (°) [2],Repose angle (°) [2],Hygroscopic weight gain at 25°C/80% RH (%) [3],Crystal form change after DVS test [3],hygroscopicity [3],Average bulk density [4],Average tap density [4],Bulk density [4],Tap density [4],crystal form after grinding [5],crystal form after tableting [5],"Solubility, FaSSIF ([6]; 1 hour, 60 min)",also measured
"CC(C)=CCC[C@](C)(O)[C@H]1CC[C@]2(C)[C@@H]1[C@H](O)C[C@@H]1[C@@]3(C)CC[C@H](O)C(C)(C)[C@@H]3CC[C@]12C [Crystal form A, 20(S)-protopanaxadiol]",No,97.20 area%,No,97.18 area%,No,97.20 area%,97.21 area%,did not undergo crystal form transformation,20.5 °,21.2 ° and 19.0 ° and 21.4 °,0.5763%,Unchanged,slight hygroscopicity,0.43 g/mL,0.52 g/mL,0.44 g/mL and 0.46 g/mL and 0.40 g/mL,0.48 g/mL and 0.56 g/mL and 0.51 g/mL,transformed into amorphous form,did not undergo crystal form transformation,0.070 mg/mL,"chemical purity (HPLC) after storage ([1]; under three conditions): did not show a significant decrease; solubility at 2 h (physchem; fassif): 73 µg/mL; solubility at 4 h (physchem; fassif): 72 µg/mL; solubility at 4 h (physchem; ph 1 buffer, pH 1): 0.11 µg/mL; solubility at 24 h (physchem; ph 1 buffer, pH 1): 0.15 µg/mL; solubility at 1 h (physchem; sgf (simulated gastric fluid)): 20 µg/mL; solubility at 2 h (physchem; sgf (simulated gastric fluid)): 21 µg/mL; solubility at 4 h (physchem; sgf (simulated gastric fluid)): 17 µg/mL; solubility at 24 h (physchem; sgf (simulated gastric fluid)): 11 µg/mL; solubility at 24 h (physchem; water): 0.13 µg/mL; solubility at 24 h (physchem; water and ph 1 buffer, pH 1): 0.13 to 0.15 µg/mL; Solubility, FaSSIF ([6]; 24 hours, 1440 min): 0.12 mg/mL; solubility in SGF, comparison among crystal forms [6]: no significant difference; solubility in FaSSIF, comparison with crystal form B [6]: higher than that of the crystal form B"
"CC(C)=CCC[C@](C)(O)[C@H]1CC[C@]2(C)[C@@H]1[C@H](O)C[C@@H]1[C@@]3(C)CC[C@H](O)C(C)(C)[C@@H]3CC[C@]12C [Crystal form B, 20(S)-protopanaxadiol]",No,97.17 area%,No,97.15 area%,No,97.18 area%,97.20 area%,did not undergo crystal form transformation,24.2 °,25.0 ° and 24.7 ° and 22.8 °,0.2227%,Unchanged,slight hygroscopicity,0.21 g/mL,0.25 g/mL,0.22 g/mL and 0.21 g/mL,0.25 g/mL and 0.24 g/mL and 0.26 g/mL,transformed into amorphous form,did not undergo crystal form transformation,0.034 mg/mL,"chemical purity (HPLC) after storage ([1]; under three conditions): did not show a significant decrease; crystallinity degree after tableting [5]: decreased; Solubility, FaSSIF ([6]; 2 hours, 120 min): 0.039 mg/mL; Solubility, FaSSIF ([6]; 4 hours, 240 min): 0.042 mg/mL; Solubility, FaSSIF ([6]; 24 hours, 1440 min): 0.042 mg/mL; solubility in SGF, comparison among crystal forms [6]: no significant difference; Solubility, SGF ([6]; 1 hour, 60 min): 0.018 mg/mL; Solubility, SGF ([6]; 2 hours, 120 min): 0.019 mg/mL; Solubility, SGF ([6]; 4 hours, 240 min): 0.018 mg/mL; Solubility, SGF ([6]; 24 hours, 1440 min): 0.016 mg/mL; 24-hour solubility relative to LOQ ([6]; 24 hours): lower than LOQ"
"CC(C)=CCC[C@](C)(O)[C@H]1CC[C@]2(C)[C@@H]1[C@H](O)C[C@@H]1[C@@]3(C)CC[C@H](O)C(C)(C)[C@@H]3CC[C@]12C [Crystal form D, 20(S)-protopanaxadiol]",No,93.75 area%,No,93.00 area%,No,94.04 area%,96.01 area%,did not undergo crystal form transformation,36.8 °,36.7 ° and 38.2 ° and 35.5 °,0.3863%,Unchanged,slight hygroscopicity,0.14 g/mL,0.21 g/mL,0.14 g/mL,0.21 g/mL and 0.20 g/mL,transformed into amorphous form,did not undergo crystal form transformation,0.11 mg/mL,"chemical purity (HPLC) after storage ([1]; open storage at 25°C/60% RH and 40°C/75% RH for 1 month): slightly decreased; purity (HPLC) after storage ([1]; sealed storage at 80°C for 1 day): slightly decreased; crystallinity degree after tableting [5]: decreased; solubility at 2 h (physchem; water): 0.13 µg/mL; Solubility, FaSSIF ([6]; 2 hours, 120 min): 0.072 mg/mL; Solubility, FaSSIF ([6]; 4 hours, 240 min): 0.082 mg/mL; Solubility, FaSSIF ([6]; 24 hours, 1440 min): 0.10 mg/mL; solubility in SGF, comparison among crystal forms [6]: no significant difference; Solubility, SGF ([6]; 1 hour, 60 min): 0.021 mg/mL; Solubility, SGF ([6]; 2 hours, 120 min): 0.017 mg/mL; Solubility, SGF ([6]; 4 hours, 240 min): 0.016 mg/mL; Solubility, SGF ([6]; 24 hours, 1440 min): 0.014 mg/mL; solubility in FaSSIF, comparison with crystal form B [6]: higher than that of the crystal form B; 24-hour solubility relative to LOQ ([6]; 24 hours): lower than LOQ"
